Data on 12 molecules can be found in patent US12264158B2, “Protein kinase MKK4 inhibitors for promoting liver regeneration or reducing or preventing hepatocyte death” (HEPAREGENIX GMBH, priority 2018, dated 2025).

Some results are limits rather than exact numbers.

What is called IC50 is the midpoint of a concentration-inhibition curve.

For this assay, the target named is T1, MEKK2 (Homo sapiens, UniProt Q9Y2U5).
T1 construct: purchased ProQinase #0583-0000-1
T1 sequence (Q9Y2U5 1-619): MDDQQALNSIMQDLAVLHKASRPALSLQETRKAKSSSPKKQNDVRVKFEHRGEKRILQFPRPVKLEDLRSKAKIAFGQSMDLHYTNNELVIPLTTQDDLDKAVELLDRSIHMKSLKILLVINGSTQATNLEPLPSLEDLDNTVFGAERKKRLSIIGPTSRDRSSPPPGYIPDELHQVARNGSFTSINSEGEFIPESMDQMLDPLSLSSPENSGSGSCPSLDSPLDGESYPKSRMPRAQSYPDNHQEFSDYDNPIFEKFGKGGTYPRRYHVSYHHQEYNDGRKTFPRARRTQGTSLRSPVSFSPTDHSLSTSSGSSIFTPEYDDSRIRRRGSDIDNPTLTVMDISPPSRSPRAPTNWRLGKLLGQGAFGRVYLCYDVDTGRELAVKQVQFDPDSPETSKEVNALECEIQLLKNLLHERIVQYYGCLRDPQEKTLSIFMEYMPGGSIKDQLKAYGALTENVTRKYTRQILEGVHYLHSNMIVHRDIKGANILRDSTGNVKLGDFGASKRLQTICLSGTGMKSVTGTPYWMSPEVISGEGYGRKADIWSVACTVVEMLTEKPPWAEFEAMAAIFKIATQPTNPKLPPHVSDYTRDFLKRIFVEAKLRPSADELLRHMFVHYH
The assay can be described thus: Radiometric protein kinase assay, MEKK2. Format: biochemical. Conditions: substrate Casein, ATP 0.2 μM; read-out: MEKK2, potency derived from IC50-values. As to the method: A radiometric protein kinase assay was used for measuring the kinase activity of the respective protein kinases. All kinase assays were performed in 96-well polypropylene plates. After the reactions were stopped, the assay mixtures were transferred to 96-well MSFC filter-plates (Millipore). The reaction mix was passed through the filter membrane by aspiration, the membrane was washed 3 times with 150 mM H3PO4, once with ethanol, dried and liquid scintillation cocktail was added. Radioactivity was determined by counting of the samples in a Microbeta multiwell scintillation counter (Wallac).
`CCCS(=O)(=O)Nc1ccc(F)c(C(=O)c2n[nH]c3ncc(-c4ccc(F)cc4C)cc23)c1F` [Example 4, N-(2,4-difluoro-3-(5-(4-fluoro-2-methylphenyl)-1H-pyrazo-lo[3,4-b]-pyri-dine-3-car-bonyl)-phenyl)-propane-1-sulfonamide]: the IC50 was > 10 µM.
For `CCCS(=O)(=O)Nc1c(F)ccc(C(=O)c2n[nH]c3ncc(-c4ccc(F)cc4C)cc23)c1F` [Example 66, N-(2,6-difluoro-3-(5-(4-fluoro-2-methylphenyl)-1H-pyrazolo[3,4-b]pyridine-3-carbonyl)phenyl) propane-1-sulfonamide], the IC50 was in the range of 1 to 10 µM.
As for `CCCS(=O)(=O)Nc1c(F)ccc(C(=O)c2n[nH]c3ncc(-c4ccc(C5N=NN=N5)cc4)cc23)c1F` [Example 74, N-(3-(5-(4-(1H-tetrazol-5-yl)phenyl)-1H-pyrazolo[3,4-b]pyridine-3-carbonyl)-2,6-difluorophenyl)propane-1-sulfonamide], the IC50 lay within 1 to 10 µM.
For `CCCS(=O)(=O)Nc1c(F)ccc(C(=O)c2n[nH]c3ncc(-c4ccc(C(C)C)cc4)cc23)c1F` [Example 65, N-(2,6-difluoro-3-(5-(4-isopropyl-phenyl)-1H-pyrazolo[3,4-b]pyridine-3-carbonyl)phenyl)propane-1-sulfonamide] the value was 1 to 10 µM; for `CCCS(=O)(=O)Nc1c(F)ccc(C(=O)c2n[nH]c3ncc(-c4cnc(C(F)(F)F)nc4)cc23)c1F` [Example 71, N-(2,6-difluoro-3-(5-(2-(trifluoromethyl)pyrimidin-5-yl)-1H-pyrazolo[3,4-b]pyridine-3-carbonyl)phenyl)propane-1-sulfonamide], > 10 µM; for `CCCS(=O)(=O)Nc1ccc(F)c(C(=O)c2n[nH]c3ncc(-c4ccc(OC)cc4Cl)cc23)c1F` [Example 5, N-(3-(5-(2-chloro-4-methoxy-phenyl)-1H-pyrazolo[3,4-b]-pyridine-3-carbonyl)-2,4-difluorophenyl)propane-1-sulfonamide], > 10 µM.
For `CCCS(=O)(=O)Nc1ccc(F)c(C(=O)c2n[nH]c3ncc(-c4ccc(NS(C)(=O)=O)cc4)cc23)c1F` [Example 51g, N-(2,4-difluoro-3-(5-(4-(methylsulfonamido)phenyl)-1H-pyrazolo[3,4-b]pyridine-3-carbonyl)phenyl)propane-1-sulfonamide] the value was 1 to 10 µM; for `CCCCS(=O)(=O)Nc1cccc(C(=O)c2n[nH]c3ncc(-c4ccc(F)cc4C)cc23)c1F` [Example 42, N-(2-fluoro-3-(5-(4-fluoro-2-methylphenyl)-1H-pyrazo-lo[3,4-b]pyridine-3-carbonyl)-phenyl)butane-1-sulfonamide], > 10 µM.
As to `CCCCS(=O)(=O)Nc1ccc(F)c(C(=O)c2n[nH]c3ncc(-c4ccc(S(N)(=O)=O)cc4)cc23)c1F` [Example 51c, 4-(3-(3-(butylsulfonamido)-2,6-difluorobenzoyl)-1H-pyrazolo[3,4-b]pyridin-5-yl) benzenesulfonamide], the IC50 lay in the range of 1 to 10 µM.
For `O=C(c1ccc(F)c(NS(=O)(=O)Cc2ccccc2)c1F)c1n[nH]c2ncc(-c3ccc(C4N=NN=N4)cc3)cc12` [Example 75, N-(3-(5-(4-(1H-tetrazol-5-yl)phenyl)-1H-pyrazolo[3,4-b]pyridine-3-carbonyl)-2,6-difluorophenyl)-1-phenylmethanesulfonamide] the value was 1 to 10 µM.
Under `CS(=O)(=O)Nc1ccc(F)c(C(=O)c2n[nH]c3ncc(-c4ccc(S(N)(=O)=O)cc4)cc23)c1F` [Example 51b, 4-(3-(2,6-difluoro-3-(methylsulfonamido)benzoyl)-1H-pyrazolo[3,4-b]pyridin-5-yl) benzenesulfonamide] stands 1 to 10 µM; under `Cc1cc(F)ccc1-c1cnc2[nH]nc(C(=O)c3cccc(NS(C)(=O)=O)c3F)c2c1` [Example 39, N-(2-fluoro-3-(5-(4-fluoro-2-methylphenyl)-1H-pyrazo-lo[3,4-b]pyridine-3-carbonyl)-phenyl)methanesulfonamide], > 10 µM.
